Like-named read-outs stand apart in the source and are kept apart here.

For test [1], the target named is T1, cGAS (Homo sapiens (Human), UniProt Q8N884). In words: Human cGAS enzyme assay (hcGAS IC50, in vitro), cGAMP formation by RapidFire MS.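 Also: enzyme activated by 45 bp dsDNA with GTP and ATP (30 µM each), 60 min compound pre-incubation then 90 min reaction, cGAMP relative to cyclic-di-GMP internal standard, 8-point dilutions up to 10 µM.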 Type of test: biochemical.
Test [2] concerns cellular cGAS activity in dsDNA-stimulated human whole blood. Nature of the test: Human whole blood assay (hWB IC50): IFNα2α production after dsDNA transfection. The format is cell-based. In short, it runs like this:
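Citrated blood from healthy donors preincubated 60 min at room temperature with compound (top 10 µM, ~1:5 steps, 0.1% DMSO), then transfected with dsDNA/Fugene and incubated 22 h at 37 °C. Plasma IFNα2α measured by MSD immunoassay; IC50 from 4-parameter fit of % control (stimulated vs unstimulated).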

The subject of test [3] is cellular cGAS activity in baculovirus-stimulated THP1-Dual cells (IRF dependent Lucia luciferase reporter). In words: Human cGAS cell assay: inhibition of IFN induction in virus-stimulated THP1 cells (THP1(vir) IC50). Type of test: cell-based. In short, it runs like this: (§1)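 THP1-Dual cells with IRF-dependent Lucia luciferase reporter, stimulated by empty baculovirus (dsDNA delivery activating cGAS) or, for the counter assay, directly by cGAMP. 5000 cells/well, 8 concentrations from 10 μM top, 1% DMSO, 18 h at 37 °C; luminescence read, IC50 by 4-parameter logistic fit versus unstimulated low control.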

Test [4] has as its system cGAMP-stimulated THP1-Dual cells (pathway directly downstream of cGAS). Nature of the test: cGAMP stimulated counter cell assay: inhibition of IFN induction in cGAMP-stimulated THP1 cells (THP1(cGAMP) IC50). The format is cell-based, human. To be noted: for IC50: read-out: THP1(cGAMP) IC50 (converted); for Ratio THP1(cGAMP) IC50 / THP1(vir) IC50: selectivity for cGAS inhibition. In short, it runs like this: as §1

Test [5] concerns the target T1, cGAS. Particulars: groups of page 44/45 of WO 2020/142729; read-out: biochemical (in vitro) IC50 group; cited from earlier work.
Where [6] appears, read: biochemical (in vitro) cGAS inhibition.
[7] abbreviates: inhibition of IFN induction in dsDNA-stimulated human whole blood.
The mark [8] stands for this setting: Homo sapiens, THP1-Dual, inhibition of IFN induction in virus-stimulated THP1 cells, read-out: THP1(vir) IC50.
[9] abbreviates: Homo sapiens, THP1-Dual, inhibition of IFN induction in cGAMP-stimulated THP1 cells.
[10] abbreviates: Homo sapiens, THP1-Dual, cGAMP-stimulated THP1 cells, counter assay.
The mark [11] stands for this setting: biochemical (in vitro), human cGAS, 45 bp dsDNA, GTP/ATP.
Where [12] appears, read: dsDNA-stimulated human whole blood, IFN induction.
Setting [13] is: Homo sapiens, THP1-Dual, read-out: THP1(vir) IC50, virus-stimulated THP1 cells, IFN induction.

T1 sequence (Q8N884 whole entry): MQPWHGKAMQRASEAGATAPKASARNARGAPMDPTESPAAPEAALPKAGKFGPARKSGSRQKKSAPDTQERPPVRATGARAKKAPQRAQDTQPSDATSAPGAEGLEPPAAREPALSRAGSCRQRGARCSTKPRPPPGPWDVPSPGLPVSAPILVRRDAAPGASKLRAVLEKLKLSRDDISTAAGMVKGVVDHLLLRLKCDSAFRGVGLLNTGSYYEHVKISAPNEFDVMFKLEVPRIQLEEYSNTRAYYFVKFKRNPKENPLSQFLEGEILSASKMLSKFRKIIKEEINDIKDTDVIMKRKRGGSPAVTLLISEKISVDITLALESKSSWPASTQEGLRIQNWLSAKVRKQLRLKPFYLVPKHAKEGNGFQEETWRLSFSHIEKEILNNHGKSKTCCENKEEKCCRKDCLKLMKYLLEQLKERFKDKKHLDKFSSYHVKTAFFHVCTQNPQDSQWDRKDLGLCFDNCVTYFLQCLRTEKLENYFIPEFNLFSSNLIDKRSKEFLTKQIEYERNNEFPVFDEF

What is called IC50 is the midpoint of a concentration-inhibition curve. Consider `CNc1cccc(-c2cnc(O[C@H]3C[C@@H](C(=O)O)N(c4nc(C(F)(F)F)nc5c4oc4ccccc45)C3)c(N3CCOC4(COC4)[C@@H]3C)c2)n1` [Example 7.03], for which the 50% inhibitory concentration (IC50) in test [1] (setting [6]) is 21 nM; in test [2] (setting [7]), 27 nM; in test [3] (setting [8]) it was 2 nM; in test [4] (setting [9]), over 10000 nM. Besides, the “Ratio THP1(cGAMP) IC50 / THP1(vir) IC50” value in test [4] worked out at 4151.

On to `Cc1cnc(-c2cnc(O[C@H]3C[C@@H](C(=O)O)N(c4nc(C(F)(F)F)nc5c4oc4ccccc45)C3)c(N3CCOC4(COC4)[C@@H]3C)c2)cn1` [Example 7.04], for which the IC50 is 12 nM in test [1] (setting [6]), 22 nM in test [2] (setting [7]), 2 nM in test [3] (setting [8]) and over 10000 nM in test [4] (setting [9]). The “Ratio THP1(cGAMP) IC50 / THP1(vir) IC50” value in test [4] was 4084.

`C[C@@H]1N(c2cc(-c3cnn(C)n3)cnc2O[C@H]2C[C@@H](C(=O)O)N(c3nc(C(F)(F)F)nc4c3oc3ccccc34)C2)CCOC12COC2` [Example 7.05]: the IC50 in test [1] (setting [6]) is 9 nM; in test [2] (setting [7]) it was 35 nM; in test [3] (setting [8]) it was 10 nM; in test [4] (setting [9]) it was 13200 nM. In addition, the “Ratio THP1(cGAMP) IC50 / THP1(vir) IC50” value in test [4] amounted to 1292.

With `C[C@@H]1N(c2cc(-c3cn(C)nn3)cnc2O[C@H]2C[C@@H](C(=O)O)N(c3nc(C(F)(F)F)nc4c3oc3ccccc34)C2)CCOC12COC2` [Example 8.01, (2S,4S)-4-{[5-(1-methyl-1H-1,2,3-triazol-4-yl)-3-[(95)-9-methyl-2,5-dioxa-8-azaspiro[3.5]nonan-8-yl]pyridin-2-yl]oxy}-1-[4-(trifluoromethyl)-8-oxa-3,5-diazatricyclo[7.4.0.0^2,7]trideca-1(9),2(7),3,5,10,12-hexaen-6-yl]pyrrolidine-2-carboxylic acid], the half-inhibitory concentration (IC50) in test [1] (setting [6]) was 5 nM; in test [2] (setting [7]), 21 nM; in test [3] (setting [8]) it was 11 nM; in test [4] (setting [9]), 14900 nM. The “Ratio THP1(cGAMP) IC50 / THP1(vir) IC50” value in test [4] came out at 1366.

As to `CSc1cnc(O[C@H]2C[C@@H](C(=O)O)N(c3nc(C(F)F)nc4c3oc3ccccc34)C2)c(N2CCOC3(COC3)[C@@H]2C)c1` [Example 9.01, (2S,4S)-1-[4-(difluoromethyl)-8-oxa-3,5-diazatricyclo[7.4.0.0^2,7]trideca-1(9),2(7),3,5,10,12-hexaen-6-yl]-4-({3-[(9S)-9-methyl-2,5-dioxa-8-azaspiro[3.5]nonan-8-yl]-5-(methylsulfanyl)pyridin-2-yl}oxy)pyrrolidine-2-carboxylic acid], the IC50 was 6 nM in test [1] (setting [6]), 38 nM in test [2] (setting [7]), 16 nM in test [3] (setting [8]) and 19800 nM in test [4] (setting [9]). The “Ratio THP1(cGAMP) IC50 / THP1(vir) IC50” value in test [4] came to 1254.

With `C[C@@H]1N(c2cc(-n3cccn3)cnc2O[C@H]2C[C@@H](C(=O)O)N(c3nc(C(F)(F)F)nc4c3oc3ccccc34)C2)CCOC12COC2` [Example 10.01, (2S,4S)-4-({3-[(95)-9-methyl-2,5-dioxa-8-azaspiro[3.5]nonan-8-yl]-5-(1H-pyrazol-1-yl)pyridin-2-yl}oxy)-1-[4-(trifluoromethyl)-8-oxa-3,5-diazatricyclo[7.4.0.0^2,7]trideca-1(9),2(7),3,5,10,12-hexaen-6-yl]pyrrolidine-2-carboxylic acid], the IC50 in test [1] (setting [6]) is 5 nM; in test [2] (setting [7]), 47 nM; in test [3] (setting [8]) it was 10 nM; in test [4] (setting [9]) it was over 10000 nM. Also, the “Ratio THP1(cGAMP) IC50 / THP1(vir) IC50” value in test [4] is on record as over 1000.

As for `Cc1nc(N2C[C@@H](Cc3nn[nH]n3)C[C@H]2C(=O)O)c2oc3ccccc3c2n1` [Example 25, reference compound], the 50% inhibitory concentration (IC50) in test [5] was under 100 nM; in test [3] (Homo sapiens, THP1-Dual, virus-stimulated THP1 cells, read-out: THP1(vir) IC50) it was 17000 nM; in test [4] (setting [10]), over 17000 nM.

Regarding `COC(=O)[C@@H]1C[C@H](Oc2ncccc2N2CCOC3(COC3)[C@@H]2C)CN1c1nc(C(F)F)nc2c1oc1ccccc12` [Example P01, Methyl (2S,4S)-4-({3-[(9S)-9-methyl-2,5-dioxa-8-azaspiro[3.5]nonan-8-yl]pyridin-2-yl}oxy)-1-[4-(difluoromethyl)-8-oxa-3,5-diazatricyclo[7.4.0.0^2,7]trideca-1(9),2(7),3,5,10,12-hexaen-6-yl]pyrrolidine-2-carboxylate], the IC50 is over 9960 nM in test [1] (setting [11]), 1310 nM in test [2] (setting [12]), 358 nM in test [3] (setting [13]) and 26100 nM in test [4] (setting [10]).

For the molecule `COC(=O)[C@@H]1C[C@H](Oc2ncc(Br)cc2N2CCOC3(COC3)[C@@H]2C)CN1c1nc(C(F)(F)F)nc2c1oc1ccccc12` [Example P02], the half-maximal inhibitory concentration (IC50) in test [1] (setting [11]) is over 9950 nM; in test [2] (setting [12]), 5330 nM; in test [3] (setting [13]), 444 nM; in test [4] (setting [10]), 17100 nM.

`C#Cc1cnc(O[C@H]2C[C@@H](C(=O)OC)N(c3nc(C(F)(F)F)nc4c3oc3ccccc34)C2)c(N2CCOC3(COC3)[C@@H]2C)c1` [Example P03]: the half-maximal inhibitory concentration (IC50) in test [1] (setting [11]) was 9620 nM; in test [2] (setting [12]) it was 1090 nM; in test [3] (setting [13]), 188 nM; in test [4] (setting [10]), 22800 nM.

On to `COC(=O)[C@@H]1C[C@H](Oc2ncc(-c3cccnc3OC)cc2N2CCOC3(COC3)[C@@H]2C)CN1c1nc(C(F)(F)F)nc2c1oc1ccccc12` [Example P04], for which the 50% inhibitory concentration (IC50) was over 9950 nM in test [1] (setting [11]); 2750 nM in test [2] (setting [12]); 67 nM in test [3] (Homo sapiens, THP1-Dual, virus-stimulated THP1 cells, IFN induction, read-out: THP1(vir) IC50); over 16600 nM in test [4] (setting [10]).

Turning to “(2S,4S)-4-({3-[(95)-9-Methyl-2,5-dioxa-8-azaspiro[3.5]nonan-8-yl]-5-(pyrimidin-5-yl)pyridin-2-yl}oxy)-1-[4-(trifluoromethyl)-8-oxa-3,5-diazatricyclo[7.4.0.0^2,7]trideca-1(9),2(7),3,5,10,12-hexaen-6-yl]pyrrolidine-2-carboxylic acid [Example 7.01]”, the IC50 in test [1] (setting [6]) is 14 nM; in test [2] (setting [7]), 50 nM; in test [3] (inhibition of IFN induction in virus-stimulated THP1 cells, read-out: THP1(vir) IC50) it was 5 nM; in test [4] (inhibition of IFN induction in cGAMP-stimulated THP1 cells), 9260 nM. Besides, the “Ratio THP1(cGAMP) IC50 / THP1(vir) IC50” value in test [4] came to 1700.

The record behind these values is US20240342186A1, “PYRIDINE DERIVATIVES WITH N-LINKED CYCLIC SUBSTITUENTS AS cGAS INHIBITORS” (Boehringer Ingelheim International GmbH, priority 2021, published 2024).
